Columns and labels:
[1] = Comparison of enhanced bioavailability DHEA adsorbate with micronised DHEA: plasma levels (AUC) of DHEA base and sulphate; format: in vivo; conditions: reference AUC arbitrarily denoted as 100%, 500 mg oral every 8 hours over 24 hours, 9 healthy male human volunteers, read-out: F = absolute bioavailability (DHEA Base)
Description: In this study an enhanced bioavailability DHEA adsorbate powder of the type prepared in Example 2 was compared with standard micronised DHEA in capsule form. For the formulation in accordance with the invention (hereinafter referred to as 'test') the dose administered was 500 mg of DHEA as adsorbate in powder-sachet form. The standard micronised DHEA (hereinafter referred to as 'reference') was administered as 2 x 250 mg capsules. […] In the study, the test substance was compared in a group of 9 healthy male human volunteers against the reference substance. The dosage regime was 500 mg every 8 hours over a 24 hour period. Plasma samples were taken in each case at intervals up to and including 24 hours post initial dosing and the samples were assayed for DHEA (base and sulphate) levels. DHEA sulphate levels were measured because a substantial portion of the DHEA is converted to the sulphate form in vivo. For the reference substance, the area under the curve (AUC) value are arbitrarily denoted as 100%. The AUC value was then compared and assigned an absolute bioavailability value (%) using the 100% as baseline.

[2] = Mean urinary recoveries for DHEA base in the comparison study; format: in vivo; conditions: human volunteers

With `C[C@]12CC[C@H](O)CC1=CC[C@@H]1[C@@H]2CC[C@]2(C)C(=O)CC[C@@H]12` [REFERENCE, dehydroepiandrosterone] the bioavailability [1] was 100%, the “Mean Urinary Recoveries for DHEA Base” value ([2]; Day 0) was 22.55 ± 8.50 mg/24 h and the “Mean Urinary Recoveries for DHEA Base” value ([2]; Day 1) was 460.67 ± 179.87 mg/24 h. The “Mean Urinary Recoveries for DHEA Base” value ([2]; Day 2) was 799.55 ± 191.90 mg/24 h, the “Mean Urinary Recoveries for DHEA Base” value ([2]; Day 3) was 745.88 ± 179.92 mg/24 h and the “Mean Urinary Recoveries for DHEA Base” value ([2]; Day 4) was 694.33 ± 162.07 mg/24 h. For the same compound, the “Mean Urinary Recoveries for DHEA Base” value ([2]; Day 5) was 800.22 ± 156.19 mg/24 h.

Reference: patent EP0429187A1, “Enhanced bioavailability adsorbates” (ELAN C[…].L.C., priority 1989, dated 1991)
